{"source": "patent US8470805B2", "about": "“Processes for preparing piperazinium salts of KMUP and use thereof” (Kaohsiung Medical University, priority 2009, dated 2013)", "key": {"RAW 264.7 cells": {"tested_on": "RAW 264.7 cells", "assay": "Inhibition of RANKL-induced osteoclast differentiation (TRAP staining)", "type": "cell-based", "conditions": "5 μM, RANKL 10 μg/ml, 5 days, n=5"}, "[1]": {"tested_on": "U46619-induced platelet aggregation", "assay": "Antiplatelet aggregation activity (U46619-induced, turbidity, Lumi-aggregometer)", "type": "cell-based", "conditions": "20 μM, rabbit platelets, n=8", "method": "4. […] After centrifuging at […] for 10 mins, the supernatant is platelet-rich plasma (PRP). The platelet suspension is obtained from EDTA-anticoagulated PRP, and the platelet granules are finally suspended in the Tyrode's solution. […] The turbidity is measured at 37° C. by Lumi-aggregometer connected with two dual channel recorders as the aggregation."}, "[2]": {"tested_on": "monocrotaline (MCT)-treated rats", "assay": "Pulmonary artery blood pressure in monocrotaline (MCT)-treated rats", "type": "in vivo, male Wistar rats", "method": "5. the monocrotaline (MCT)-treated rats show the […] pulmonary aterial hypertension\nPulmonary aterial hypertension in MCT-treated rats is caused on day 21 after the intraperitoneal injection. Orally administered KMUP-1 HCl salt (2.5 mg/kg), simvastatin (2.5 mg/kg), KMUP-1-nicotinic acid complex (2.5 mg/kg), KMUP-1-Citric acid complex (2.5 mg/kg), KMUP-1-Simvastatinic acid complex (2.5 mg/kg) and KMUP-1-γ-Polyglutamic acid complex (2.5 mg/kg), or the inhalated KMUP-1-PGI2 (0.1 mM) every day may inhibit the male Wistar rats treated with MCT, which show the effect of decreasing the pulmonary artery blood pressure (PABP)."}, "H1N1 virus": {"tested_on": "H1N1 virus", "type": "cell-based", "conditions": "MDCK culture infected with H1N1 virus; for IC50: n=6"}, "C57BL/6J mice [3]": {"tested_on": "C57BL/6J mice", "assay": "The lipid-lowering effect in C57BL/6J mice (high-fat diet)", "type": "in vivo", "conditions": "HFD, after 21 days", "method": "(§1) 8-week C57BL/6J mice are divided into standard diet (STD) group and the high-fat diet (HFD) group. In the HFD group, the KMUP-1 HCl salt (1, 2.5 and 5 mg/kg), the simvastatin (5 mg/kg), the KMUP-1-Nicotinic acid complex (1 and 5 mg/kg), the KMUP-1-Simvastatinic acid complex (1 and 5 mg/kg), KMUP-1-Gemfibrozil complex (2.5 mg/kg), KMUP-1-Fibric acid complex (2.5 mg/kg), KMUP-1-γ-polyglutamic acid complex (2.5 mg/kg) and KMUP-1-Citric acid complex (2.5 mg/kg) are administered orally. After 21 days, the amounts (mg/dl) of the triglyceride (TG), the total cholesterol (tot.-C), the high density lipoprotein cholesterol (HDL-C), the low density lipoprotein cholesterol (LDL-C) and the serum glucose of six mice for each group are measured as shown in Tables 2 and 3."}, "TGF-β": {"tested_on": "TGF-β", "assay": "Bleomycin-induced lung fibrosis in mice, TGF-β expression by EIA", "type": "in vivo", "conditions": "bleomycin 60 mg/kg", "method": "6. KMUP-1 salts inhibit the lung fibrosis in mice induced by bleomycin (BM) mediated via transforming growth factor beta (TGF-β) expression in lung The increased amount of the synthetic collagen and the generation of the macrophage in alveolus may facilitate the formulation of TGF-β, and the expression of TGF-β is looked as a biomarker of the lung fibrosis. […] The state of the TGF-β expression in the irrigation solution is measured by the enzyme immunoassay (EIA)."}, "C57BL/6J mice [4]": {"tested_on": "C57BL/6J mice", "assay": "The amount of the serum glucose and insulin in C57BL/6J mice (high-fat diet)", "type": "in vivo", "design": "The amount of serum insulin: unit not given here", "conditions": "1 mg/kg orally, HFD, after 21 days", "method": "as §1"}, "[5]": {"tested_on": "STZ-induced diabetic rats", "assay": "Serum glucose and body weight in streptozosin (STZ)-induced diabetic rats", "type": "in vivo", "conditions": "5 mg/kg orally, after 21 days", "method": "2. The effect of KMUP-1 on decreasing the amount of the serum glucose in streptozosin (STZ)-induced diabetic rats\n60 mg/kg of streptozosin is injected intravenously for inducing the STZ-induced rats, and the KMUP-1 HCl salt (0.5, 1.5, 2.5 and 5 mg/kg) and KMUP-1-Simvastatinic acid (5 mg/kg) are administered orally. After 21 days, the amount of the serum glucose (mg/dl), the amount of the serum insulin (mg/dl), the body weight (g) and the change of the body weight are measured."}, "[6]": {"tested_on": "STZ-induced diabetic rats", "assay": "Change of insulin and fasting blood glucose after administration, STZ-induced diabetic rats", "type": "in vivo", "conditions": "4 mg/kg", "method": "Nateglinide, repaglinide or the placebo is administered on day 1 before one hour of the breakfast, and the KMUP-1/KMUP-1-Nateglinide or KMUP-1-Repaglinide are orally administered at 1, 2, 3, 4, 5 and 6 hrs respectively. The amount of the serum glucose (mg/dl), the amount of the serum insulin (mg/dl), the body weight (g) and the change of the body weight are measured."}}}
{"compound": "CC(C)c1c(C(=O)Nc2ccccc2)c(-c2ccccc2)c(-c2ccc(F)cc2)n1CC[C@@H](O)C[C@@H](O)CC(=O)O.Cn1c(=O)c2c(ncn2CCN2CCN(c3ccccc3Cl)CC2)n(C)c1=O", "note": "[KMUP-1-Atorvastatinic acid, KMUP-1-Atorvastatinic acid complex]", "values": [{"measurement": "TRAP-Positive Cells", "setting": "RAW 264.7 cells", "value": "78 ± 3"}]}
{"compound": "COc1ccc2c(c1)c(CC(=O)O)c(C)n2C(=O)c1ccc(Cl)cc1", "note": "[Indomethacin, indomethacin, reference compound]", "values": [{"measurement": "The ratio of the antiplatelet aggregation", "setting": "[1]", "value": "87 ± 8.3", "unit": "%"}]}
{"compound": "KMUP-1-PGI2 complex", "values": [{"measurement": "PABP", "setting": "[2]; 0.1 mM (inhalation)", "value": "10 ± 0.2", "unit": "mmHg"}]}
{"compound": "CC[C@H](C)C(=O)O[C@H]1C[C@@H](C)C=C2C=C[C@H](C)[C@H](CC[C@@H](O)C[C@@H](O)CC(=O)O)[C@H]21.Cn1c(=O)c2c(ncn2CCN2CCN(c3ccccc3Cl)CC2)n(C)c1=O", "note": "[KMUP-1-Lovastatinic acid, KMUP-1-Lovastatinic acid complex]", "values": [{"measurement": "IC50", "setting": "H1N1 virus", "value": 1.9, "unit": "µg/mL"}, {"measurement": "TRAP-Positive Cells", "setting": "RAW 264.7 cells", "value": "73 ± 6"}]}
{"compound": "CCC(C)(C)C(=O)O[C@H]1C[C@@H](C)C=C2C=C[C@H](C)[C@H](CC[C@@H]3C[C@@H](O)CC(=O)O3)[C@H]21", "note": "[Simvastatin, simvastatin, reference compound]", "values": [{"measurement": "HDL-C", "setting": "C57BL/6J mice [3]; 5 mg/kg orally", "value": "103.18 ± 2.5", "unit": "mg/dL"}, {"measurement": "LDL-C", "setting": "C57BL/6J mice [3]; 5 mg/kg orally", "value": "15.3 ± 1.3", "unit": "mg/dL"}, {"measurement": "TG", "setting": "C57BL/6J mice [3]; 5 mg/kg orally", "value": "82.67 ± 6.3", "unit": "mg/dL"}, {"measurement": "tot.-C", "setting": "C57BL/6J mice [3]; 5 mg/kg orally", "value": "133.67 ± 4.3", "unit": "mg/dL"}, {"measurement": "Changing % of the lung TGF-β", "setting": "TGF-β; 5 mg/kg orally", "value": "40 ± 4.3", "unit": "%"}, {"measurement": "TRAP-Positive Cells", "setting": "RAW 264.7 cells", "value": "85 ± 7"}]}
{"compound": "KMUP-1-γ-polyglutamate complex [KMUP-1-γ-polyglutamic acid]", "values": [{"measurement": "HDL-C", "setting": "C57BL/6J mice [3]; 2.5 mg/kg orally", "value": "97.3 ± 1.6", "unit": "mg/dL"}, {"measurement": "LDL-C", "setting": "C57BL/6J mice [3]; 2.5 mg/kg orally", "value": "16.5 ± 0.9", "unit": "mg/dL"}, {"measurement": "TG", "setting": "C57BL/6J mice [3]; 2.5 mg/kg orally", "value": "78.2 ± 3.6", "unit": "mg/dL"}, {"measurement": "tot.-C", "setting": "C57BL/6J mice [3]; 2.5 mg/kg orally", "value": "129.4 ± 1.4", "unit": "mg/dL"}, {"measurement": "PABP", "setting": "[2]; 2.5 mg/kg/day p.o.", "value": "11 ± 0.6", "unit": "mmHg"}, {"measurement": "Changing % of the lung TGF-β", "setting": "TGF-β; 2.5 mg/kg orally", "value": "42 ± 1.6", "unit": "%"}]}
{"compound": "CCC(C)(C)C(=O)O[C@H]1C[C@@H](C)C=C2C=C[C@H](C)[C@H](CC[C@@H](O)C[C@@H](O)CC(=O)O)[C@H]21.Cn1c(=O)c2c(ncn2CCN2CCN(c3ccccc3Cl)CC2)n(C)c1=O", "note": "[KMUP-1-Simvastatinic acid, KMUP-1-Simvastatinic acid complex]", "values": [{"measurement": "HDL-C", "setting": "C57BL/6J mice [3]; 5 mg/kg orally", "value": "108.4 ± 1.3", "unit": "mg/dL"}, {"measurement": "LDL-C", "setting": "C57BL/6J mice [3]; 5 mg/kg orally", "value": "17.3 ± 1.4", "unit": "mg/dL"}, {"measurement": "TG", "setting": "C57BL/6J mice [3]; 5 mg/kg orally", "value": "81.2 ± 4.4", "unit": "mg/dL"}, {"measurement": "tot.-C", "setting": "C57BL/6J mice [3]; 5 mg/kg orally", "value": "129.7 ± 1.4", "unit": "mg/dL"}, {"measurement": "The amount of serum glucose", "setting": "C57BL/6J mice [4]", "value": "117.3 ± 3.8", "unit": "mg/dL"}, {"measurement": "The amount of serum insulin", "setting": "C57BL/6J mice [4]", "value": "0.85 ± 0.17"}, {"measurement": "The amount of the serum glucose", "setting": "[5]", "value": "194.2 ± 16.1", "unit": "mg/dL"}, {"measurement": "PABP", "setting": "[2]; 2.5 mg/kg/day p.o.", "value": "12 ± 1.3", "unit": "mmHg"}, {"measurement": "Changing % of the lung TGF-β", "setting": "TGF-β; 2.5 mg/kg orally", "value": "45 ± 4.5", "unit": "%"}, {"measurement": "growth of the virus (in words)", "setting": "H1N1 virus; in glucose solution", "value": "can inhibit the growth of the virus"}, {"measurement": "IC50", "setting": "H1N1 virus", "value": 1.8, "unit": "µg/mL"}, {"measurement": "TRAP-Positive Cells", "setting": "RAW 264.7 cells", "value": "72 ± 5"}]}
{"compound": "COc1ccc2c(c1)c(CC(=O)O)c(C)n2C(=O)c1ccc(Cl)cc1.Cn1c(=O)c2c(ncn2CCN2CCN(c3ccccc3Cl)CC2)n(C)c1=O", "note": "[KMUP-1-Indomethacin, KMUP-1-Indomethacin complex]", "values": [{"measurement": "The ratio of the antiplatelet aggregation", "setting": "[1]", "value": "92 ± 5.8", "unit": "%"}]}
{"compound": "CC(C)[C@H]1CC[C@H](C(=O)N[C@H](Cc2ccccc2)C(=O)O)CC1.Cn1c(=O)c2c(ncn2CCN2CCN(c3ccccc3Cl)CC2)n(C)c1=O", "note": "[KMUP-1-Nat, KMUP-1-Nateglinide Complex]", "values": [{"measurement": "The change of the fasting blood glucose after administration", "setting": "[6]; 1 hr", "value": "4.67 ± 0.7", "unit": "mg/dL"}, {"measurement": "The change of the insulin after administration", "setting": "[6]; 1 hr", "value": "38 ± 2.7", "unit": "U/mL"}, {"measurement": "The change of the fasting blood glucose after administration", "setting": "[6]; 2 hr", "value": "0.8 ± 0.4", "unit": "mg/dL"}, {"measurement": "The change of the insulin after administration", "setting": "[6]; 2 hr", "value": "51.3 ± 4.3", "unit": "U/mL"}, {"measurement": "The change of the insulin after administration", "setting": "[6]; 3 hr", "value": "31.8 ± 3.7", "unit": "U/mL"}, {"measurement": "The change of the insulin after administration", "setting": "[6]; 4 hr", "value": "21.8 ± 5.3", "unit": "U/mL"}, {"measurement": "The change of the fasting blood glucose after administration", "setting": "[6]; 6 hr", "value": "-0.2 ± 0.3", "unit": "mg/dL"}, {"measurement": "The change of the insulin after administration", "setting": "[6]; 6 hr", "value": "3.4 ± 0.6", "unit": "U/mL"}]}
